Results on four molecules are retold here after PMC7069248 (Chemical Science, 2019).

Experiment [1] concerns the target T1, Jack bean α-mannosidase (Canavalia ensiformis, UniProt C0HJB3).
T1 sequence (C0HJB3 1-981): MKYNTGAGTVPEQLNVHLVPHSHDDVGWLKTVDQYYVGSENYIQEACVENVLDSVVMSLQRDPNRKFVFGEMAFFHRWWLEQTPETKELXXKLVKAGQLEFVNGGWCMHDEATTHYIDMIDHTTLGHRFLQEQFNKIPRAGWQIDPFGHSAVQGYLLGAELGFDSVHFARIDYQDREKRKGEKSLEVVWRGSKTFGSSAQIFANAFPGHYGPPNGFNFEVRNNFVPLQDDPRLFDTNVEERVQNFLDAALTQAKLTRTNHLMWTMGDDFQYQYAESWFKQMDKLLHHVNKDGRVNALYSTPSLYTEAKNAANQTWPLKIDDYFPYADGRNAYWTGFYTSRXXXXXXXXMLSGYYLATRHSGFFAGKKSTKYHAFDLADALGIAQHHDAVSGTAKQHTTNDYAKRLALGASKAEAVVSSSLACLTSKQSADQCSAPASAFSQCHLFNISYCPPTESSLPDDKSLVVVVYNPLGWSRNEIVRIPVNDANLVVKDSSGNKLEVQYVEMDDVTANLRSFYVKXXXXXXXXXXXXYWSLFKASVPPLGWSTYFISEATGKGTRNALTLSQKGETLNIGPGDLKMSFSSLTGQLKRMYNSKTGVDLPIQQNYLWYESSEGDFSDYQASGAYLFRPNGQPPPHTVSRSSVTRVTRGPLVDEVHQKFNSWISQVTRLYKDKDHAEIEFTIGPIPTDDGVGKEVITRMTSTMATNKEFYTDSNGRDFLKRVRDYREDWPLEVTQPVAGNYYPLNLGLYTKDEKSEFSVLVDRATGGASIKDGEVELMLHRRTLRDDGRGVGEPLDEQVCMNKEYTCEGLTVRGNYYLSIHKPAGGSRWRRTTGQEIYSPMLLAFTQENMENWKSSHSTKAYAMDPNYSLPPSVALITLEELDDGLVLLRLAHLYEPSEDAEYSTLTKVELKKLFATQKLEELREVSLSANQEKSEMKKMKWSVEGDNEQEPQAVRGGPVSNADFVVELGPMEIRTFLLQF
Kind of experiment: Specificity analysis of M10: Jack bean α-mannosidase. The experiment is classed as biochemical. As to conditions: read-out: M10 IC50; 37 °C, pH 7.

The target of experiment [2] is E. coli β-galactosidase (Escherichia coli, UniProt P00722). The experiment in a line: Specificity analysis of M10: E. coli β-galactosidase. Conditions: read-out: M10 IC50; 37 °C, pH 7, 1.0 mM MgCl2.
The target in experiment [3] is Homo sapiens maltase-glucoamylase (Homo sapiens, UniProt O43451). Kind of experiment: Specificity analysis of M10: maltase-glucoamylase. The experiment is classed as biochemical. As to conditions: read-out: M10 IC50; 37 °C, pH 7, PNP α-Glc.
In experiment [4] the target is T2, Human pancreatic α-amylase (HPA) (Homo sapiens, UniProt P04746).
T2 sequence (P04746 16-511): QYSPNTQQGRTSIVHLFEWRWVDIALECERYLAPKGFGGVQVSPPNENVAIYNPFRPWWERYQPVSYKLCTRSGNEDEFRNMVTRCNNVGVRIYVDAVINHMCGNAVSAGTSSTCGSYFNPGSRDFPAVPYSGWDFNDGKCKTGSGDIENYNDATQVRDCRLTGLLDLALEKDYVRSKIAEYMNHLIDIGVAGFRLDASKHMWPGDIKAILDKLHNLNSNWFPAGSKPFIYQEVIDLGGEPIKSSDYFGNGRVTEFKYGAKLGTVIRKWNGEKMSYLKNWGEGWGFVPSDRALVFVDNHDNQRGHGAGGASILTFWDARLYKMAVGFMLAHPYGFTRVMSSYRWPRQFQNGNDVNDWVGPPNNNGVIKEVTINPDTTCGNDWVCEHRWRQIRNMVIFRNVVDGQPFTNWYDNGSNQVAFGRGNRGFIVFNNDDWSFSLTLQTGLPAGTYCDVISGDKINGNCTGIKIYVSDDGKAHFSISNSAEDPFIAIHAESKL
Conditions: relative to M09.

The target in experiment [5] is H. sapiens C-term sucrase-isomaltase (Homo sapiens, UniProt P14410). Kind of experiment: Specificity analysis: C-term sucrase-isomaltase. The experiment is classed as biochemical. As to conditions: read-out: M10 IC50; 37 °C, pH 7, PNP α-Glc.
For experiment [6], the target named is T3, Agrobacterium β-glucosidase (Agrobacterium sp., UniProt P12614).
T3 sequence (P12614 1-459): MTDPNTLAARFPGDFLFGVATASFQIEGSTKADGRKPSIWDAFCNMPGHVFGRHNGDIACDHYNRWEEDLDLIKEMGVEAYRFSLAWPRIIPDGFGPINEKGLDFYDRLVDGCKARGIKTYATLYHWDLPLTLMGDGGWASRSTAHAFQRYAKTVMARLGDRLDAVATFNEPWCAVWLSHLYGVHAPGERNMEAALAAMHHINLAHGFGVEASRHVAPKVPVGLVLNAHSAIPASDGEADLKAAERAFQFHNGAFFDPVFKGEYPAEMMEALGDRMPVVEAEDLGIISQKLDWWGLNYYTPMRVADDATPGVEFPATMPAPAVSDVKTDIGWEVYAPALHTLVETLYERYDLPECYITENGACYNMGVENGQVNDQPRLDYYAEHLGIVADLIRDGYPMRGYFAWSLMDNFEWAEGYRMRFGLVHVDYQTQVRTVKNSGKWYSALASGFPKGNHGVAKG
Kind of experiment: Specificity analysis of M10: Agrobacterium β-glucosidase. Format: biochemical.

Experiment [7] has as its target Green coffee bean α-galactosidase (Coffea arabica, UniProt Q42656). Kind of experiment: Specificity analysis of M10: green coffee bean α-galactosidase. Format: biochemical. Conditions: read-out: M10 IC50; 37 °C, pH 7.
In experiment [8] the target is T2, Human pancreatic α-amylase (HPA). Kind of experiment: biochemical.

Chain of H. sapiens C-term sucrase-isomaltase (P14410 1008-1827 limits assumed): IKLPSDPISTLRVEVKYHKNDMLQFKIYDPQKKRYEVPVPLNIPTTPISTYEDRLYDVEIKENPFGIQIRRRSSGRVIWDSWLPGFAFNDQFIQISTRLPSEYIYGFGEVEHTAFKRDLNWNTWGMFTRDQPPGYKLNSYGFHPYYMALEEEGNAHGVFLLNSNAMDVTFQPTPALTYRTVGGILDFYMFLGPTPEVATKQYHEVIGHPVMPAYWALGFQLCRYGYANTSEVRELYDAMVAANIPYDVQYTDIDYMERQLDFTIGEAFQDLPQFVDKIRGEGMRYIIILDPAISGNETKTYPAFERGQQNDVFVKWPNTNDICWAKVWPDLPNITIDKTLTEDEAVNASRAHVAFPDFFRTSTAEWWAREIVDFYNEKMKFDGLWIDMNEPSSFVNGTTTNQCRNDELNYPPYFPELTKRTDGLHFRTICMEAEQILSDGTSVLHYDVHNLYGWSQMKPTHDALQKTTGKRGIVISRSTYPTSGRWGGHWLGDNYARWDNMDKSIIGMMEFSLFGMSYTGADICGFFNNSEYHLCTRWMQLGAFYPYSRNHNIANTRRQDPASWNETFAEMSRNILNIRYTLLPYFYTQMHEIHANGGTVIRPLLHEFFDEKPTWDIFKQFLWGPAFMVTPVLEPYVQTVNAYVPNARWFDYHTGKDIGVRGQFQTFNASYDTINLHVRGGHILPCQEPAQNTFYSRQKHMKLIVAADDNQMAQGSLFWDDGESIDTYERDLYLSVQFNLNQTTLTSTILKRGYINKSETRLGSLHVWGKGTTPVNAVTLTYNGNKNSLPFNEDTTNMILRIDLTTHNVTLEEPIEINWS
Chain of E. coli β-galactosidase (P00722 2-1024 limits assumed): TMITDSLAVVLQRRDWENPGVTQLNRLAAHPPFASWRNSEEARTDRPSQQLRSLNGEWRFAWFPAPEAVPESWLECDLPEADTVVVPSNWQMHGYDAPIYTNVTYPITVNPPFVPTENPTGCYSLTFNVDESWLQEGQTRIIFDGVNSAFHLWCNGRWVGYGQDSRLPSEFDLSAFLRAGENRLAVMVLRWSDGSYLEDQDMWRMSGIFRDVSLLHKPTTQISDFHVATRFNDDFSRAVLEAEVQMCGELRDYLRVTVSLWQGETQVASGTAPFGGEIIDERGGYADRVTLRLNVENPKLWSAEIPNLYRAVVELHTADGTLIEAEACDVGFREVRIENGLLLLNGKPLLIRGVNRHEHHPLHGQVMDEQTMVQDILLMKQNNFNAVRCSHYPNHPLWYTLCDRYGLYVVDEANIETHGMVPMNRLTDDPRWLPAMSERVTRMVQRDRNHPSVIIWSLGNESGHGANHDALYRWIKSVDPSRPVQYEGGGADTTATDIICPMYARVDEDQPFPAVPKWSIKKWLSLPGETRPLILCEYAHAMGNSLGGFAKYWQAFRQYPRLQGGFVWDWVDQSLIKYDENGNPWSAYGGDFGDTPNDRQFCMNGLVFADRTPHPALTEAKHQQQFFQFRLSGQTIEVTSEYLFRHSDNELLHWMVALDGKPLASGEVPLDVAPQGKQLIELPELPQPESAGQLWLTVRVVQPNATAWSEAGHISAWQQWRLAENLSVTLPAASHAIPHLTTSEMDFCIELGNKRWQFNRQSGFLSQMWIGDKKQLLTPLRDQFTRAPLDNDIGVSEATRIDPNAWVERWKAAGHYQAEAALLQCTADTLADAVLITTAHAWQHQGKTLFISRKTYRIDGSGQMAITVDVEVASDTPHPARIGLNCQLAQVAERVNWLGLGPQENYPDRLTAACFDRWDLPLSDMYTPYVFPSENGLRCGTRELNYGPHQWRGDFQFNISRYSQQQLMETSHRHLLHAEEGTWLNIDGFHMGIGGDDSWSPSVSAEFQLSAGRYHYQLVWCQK
Chain of Green coffee bean α-galactosidase (Q42656 16-378): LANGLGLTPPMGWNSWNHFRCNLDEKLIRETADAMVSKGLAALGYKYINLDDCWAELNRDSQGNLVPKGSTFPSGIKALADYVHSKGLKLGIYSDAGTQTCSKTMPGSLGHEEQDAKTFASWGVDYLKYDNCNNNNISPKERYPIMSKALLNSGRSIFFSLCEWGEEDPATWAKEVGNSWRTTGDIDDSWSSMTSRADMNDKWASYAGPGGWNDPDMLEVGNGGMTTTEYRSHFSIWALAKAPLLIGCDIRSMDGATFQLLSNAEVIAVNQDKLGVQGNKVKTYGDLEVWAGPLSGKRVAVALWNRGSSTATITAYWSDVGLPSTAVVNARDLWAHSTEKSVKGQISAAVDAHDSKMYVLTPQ

As to `O=C(/C=C/c1ccc(O)c(O)c1)N[C@@H](Cc1ccc(O)cc1)C(=O)NCCCOc1c(-c2ccc(O)c(O)c2)oc2cc(O)cc(O)c2c1=O` [M10], the IC50 in experiment [1] is over 7 µM; in experiment [2], over 7 µM; in experiment [3], over 7 µM; in experiment [5], over 7 µM; in experiment [6] it was 35.4 ± 5.7 µM; in experiment [7] it was over 7 µM. Also, the “Further contribution to the binding affinity” value in experiment [4] is about 2.5 kcal mol^–1.

In turn, `O=C(/C=C/c1ccc(O)c(O)c1)NCCCOc1c(-c2ccc(O)c(O)c2)oc2cc(O)cc(O)c2c1=O` [M03] showed a Ki in experiment [8] of 110 ± 10 µM.

Take `O=C(/C=C/c1ccc(O)c(O)c1)N[C@@H](Cc1ccc(O)c(O)c1)C(=O)NCCCOc1c(-c2ccc(O)c(O)c2)oc2cc(O)cc(O)c2c1=O` [M11]: the “Further contribution to the binding affinity” value in experiment [4] is about 2.5 kcal mol^–1. In experiment [8], this molecule displayed an inhibition constant (Ki) of 0.06 µM.

`O=C(/C=C/c1ccc(O)c(O)c1)NCC(=O)NCCCOc1c(-c2ccc(O)c(O)c2)oc2cc(O)cc(O)c2c1=O` [M05] returned a Ki in experiment [8] of 60 ± 10 µM.
